Source: patent publication US8557816B2, “Aurora kinase modulators and method of use” (Amgen Inc., priority 2007, dated 2013)

How the values were obtained:
[1] = biological target: T1, AuroraA-TPX2 (Homo sapiens, UniProt O14965); assay: AuroraA-TPX2 Homogeneous Time Resolved Fluorescent (HTRF) kinase assay; type: biochemical; conditions: average; read-out: AurA_IC50_IP (uM Avg)
T1 construct: 20 μL of AuroraA-TPX2 KD GST for a final volume of about 41 μL; GST
T1 sequence (O14965 133-383 limits assumed): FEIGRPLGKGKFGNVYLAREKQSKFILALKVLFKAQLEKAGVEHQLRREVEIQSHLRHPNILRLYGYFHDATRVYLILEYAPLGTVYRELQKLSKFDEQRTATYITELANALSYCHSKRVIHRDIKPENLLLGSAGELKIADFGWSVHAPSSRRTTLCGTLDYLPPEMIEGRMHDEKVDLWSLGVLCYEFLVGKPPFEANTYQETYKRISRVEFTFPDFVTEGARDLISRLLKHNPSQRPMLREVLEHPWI
T1 sequence (Q9ULW0 1-43 partner limits assumed): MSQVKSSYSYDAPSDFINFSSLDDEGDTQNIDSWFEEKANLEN
How it was run: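 HTRF read-out (Eu 615 nm to APC 655 nm) of phosphorylated biotin-PLK, detected with 0.02 nM europium anti-phosphoPLK antibody and 0.0005 mg/mL SA-APC after overnight equilibration.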

[2] = biological target: T2, AuroraB (Homo sapiens, UniProt Q96GD4); assay: AuroraB Homogeneous Time Resolved Fluorescent (HTRF) kinase assay; type: biochemical; conditions: average; read-out: AurB_IC50_IP (uM Avg)
T2 construct: 20 μL of AuroraB FL H is for a final volume of 41 μL; His
How it was run: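 Read-out is time-resolved FRET between europium anti-phospho-H3 antibody and streptavidin-APC, added in EDTA buffer to stop the reaction and equilibrated about 60 min (ex 320, em 615 and 655 nm). Preceding reaction: ~90 min, full-length enzyme, ATP, 0.1 μM biotin-Histone H3 substrate, Mg/Mn HEPES buffer pH 7.5.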

T2 sequence (Q96GD4 whole entry): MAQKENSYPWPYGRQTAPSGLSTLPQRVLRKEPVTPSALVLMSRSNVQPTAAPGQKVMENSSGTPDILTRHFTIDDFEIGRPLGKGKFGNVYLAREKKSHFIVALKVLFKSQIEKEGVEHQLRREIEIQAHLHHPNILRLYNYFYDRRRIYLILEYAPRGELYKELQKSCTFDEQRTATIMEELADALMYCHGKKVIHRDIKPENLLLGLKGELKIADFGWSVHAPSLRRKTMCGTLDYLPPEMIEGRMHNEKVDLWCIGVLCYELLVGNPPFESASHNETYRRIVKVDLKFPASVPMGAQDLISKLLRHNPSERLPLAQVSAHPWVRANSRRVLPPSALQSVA

Structure (SMILES) | IC50 [1] | IC50 [2]
COc1cnc2c(Oc3ccc(Nc4nnc(-c5ccc(C(C)C)cc5)c5ccccc45)cc3)ccnc2c1 [compound 155, 4-(4-(1-methylethyl)phenyl)-N-(4-((7-(methyloxy)-1,5-naphthyridin-4-yl)oxy)phenyl)-1-phthalazinamine] | 0.029 µM | 0.011 µM
CCCc1cc(-c2ccccc2)nnc1Nc1ccc(Oc2ccnc3cc(OC)cnc23)cc1 [compound 156, N-(4-((7-(methyloxy)-1,5-naphthyridin-4-yl)oxy)phenyl)-6-phenyl-4-propyl-3-pyridazinamine] | 0.047 µM | 0.005 µM
COc1cnc2c(Oc3ccc(Nc4nnc(-c5ccc6c(c5)OCCN6C)c5ccccc45)cc3)ccnc2c1 [compound 157, 4-(4-methyl-3,4-dihydro-2H-1,4-benzoxazin-7-yl)-N-(4-((7-(methyloxy)-1,5-naphthyridin-4-yl)oxy)phenyl)-1-phthalazinamine] | 0.012 µM | 0.005 µM
COc1cnc2c(Oc3ccc(Nc4nnc(-c5ccc(OC)nc5)c5ccccc45)cc3)ccnc2c1 [compound 158, N-(4-((7-(methyloxy)-1,5-naphthyridin-4-yl)oxy)phenyl)-4-(6-(methyloxy)-3-pyridinyl)-1-phthalazinamine] | 0.037 µM | 0.005 µM
COc1cnc2c(Oc3ccc(Nc4nnc(-c5ccc6occc6c5)c5ccccc45)cc3)ccnc2c1 [compound 159, 4-(1-benzofuran-5-yl)-N-(4-((7-(methyloxy)-1,5-naphthyridin-4-yl)oxy)phenyl)-1-phthalazinamine] | 0.01 µM | 0.007 µM
Cc1ccc(-c2nnc(Nc3ccc(Oc4ccnc5ccccc45)c(F)c3)c3ccccc23)cc1 [compound 161, N-(3-fluoro-4-(4-quinolinyloxy)phenyl)-4-(4-methylphenyl)-1-phthalazinamine] | 0.027 µM | 0.005 µM
Cc1ccc(-c2nnc(Nc3ccc(Oc4ccnc5cc(C#N)ccc45)cc3)c3ccccc23)s1 [compound 162, 4-((4-((4-(5-methyl-2-thienyl)-1-phthalazinyl)amino)phenyl)oxy)-7-quinolinecarbonitrile] | 0.012 µM | 0.004 µM
COc1cnc2c(Oc3ccc(Nc4nnc(-c5ccc(OC(F)(F)F)cc5)c5ccccc45)cc3)ccnc2c1 [compound 163, N-(4-((7-(methyloxy)-1,5-naphthyridin-4-yl)oxy)phenyl)-4-(4-((trifluoromethyl)oxy)phenyl)-1-phthalazinamine] | 0.072 µM | 0.009 µM
COc1ccc2c(Oc3ccc(Nc4nnc(-c5ccccc5)c5ccccc45)cc3)c(F)cnc2c1 [compound 164, N-(4-((3-fluoro-7-(methyloxy)-4-quinolinyl)oxy)phenyl)-4-phenyl-1-phthalazinamine] | 0.04 µM | 0.003 µM
COc1cnc2c(Oc3ccc(Nc4nnc(-c5ccc6c(c5)OCCO6)c5ccccc45)cc3)ccnc2c1 [compound 166, 4-(2,3-dihydro-1,4-benzodioxin-6-yl)-N-(4-((7-(methyloxy)-1,5-naphthyridin-4-yl)oxy)phenyl)-1-phthalazinamine] | 0.023 µM | 0.006 µM
COc1cnc2c(Oc3ccc(Nc4nnc(-c5ccc6[nH]ccc6c5)c5ccccc45)cc3)ccnc2c1 [compound 167, 4-(1H-indol-5-yl)-N-(4-((7-(methyloxy)-1,5-naphthyridin-4-yl)oxy)phenyl)-1-phthalazinamine] | 0.013 µM | 0.004 µM
COc1cnc2c(Oc3ccc(Nc4nnc(-c5ccc6c(c5)CCO6)c5ccccc45)cc3)ccnc2c1 [compound 168, 4-(2,3-dihydro-1-benzofuran-5-yl)-N-(4-((7-(methyloxy)-1,5-naphthyridin-4-yl)oxy)phenyl)-1-phthalazinamine] | 0.008 µM | 0.005 µM
COc1cnc2c(Oc3ccc(Nc4nnc(-c5csc6ccccc56)c5ccccc45)cc3)ccnc2c1 [compound 169, 4-(1-benzothien-3-yl)-N-(4-((7-(methyloxy)-1,5-naphthyridin-4-yl)oxy)phenyl)-1-phthalazinamine] | 0.01 µM | 0.009 µM
Cc1csc(-c2nnc(Nc3ccc(Oc4ccnc5cc(C#N)ccc45)cc3)c3ccccc23)c1 [compound 170, 4-((4-((4-(4-methyl-2-thienyl)-1-phthalazinyl)amino)phenyl)oxy)-7-quinolinecarbonitrile] | 0.016 µM | 0.009 µM
COc1cnc2c(Oc3ccc(Nc4nnc(-c5cc6ccccc6s5)c5ccccc45)cc3)ccnc2c1 [compound 171, 4-(1-benzothien-2-yl)-N-(4-((7-(methyloxy)-1,5-naphthyridin-4-yl)oxy)phenyl)-1-phthalazinamine] | 0.013 µM | 0.015 µM
COc1cnc2c(Oc3ccc(Nc4nnc(-c5ccc(C(F)(F)F)c(Cl)c5)c5ccccc45)cc3)ccnc2c1 [compound 172, 4-(3-chloro-4-(trifluoromethyl)phenyl)-N-(4-((7-(methyloxy)-1,5-naphthyridin-4-yl)oxy)phenyl)-1-phthalazinamine] | 0.039 µM | 0.017 µM
COc1cnc2c(Oc3ccc(Nc4nnc(N5CC[C@H]6CCCC[C@H]6C5)c5ccccc45)cc3)ccnc2c1 [compound 173, N-(4-((7-(methyloxy)-1,5-naphthyridin-4-yl)oxy)phenyl)-4-((4aR,8aR)-octahydro-2(1H)-isoquinolinyl)-1-phthalazinamine] | 0.019 µM | 0.019 µM
CCOc1nc(-c2nnc(Nc3ccc(Oc4ccnc5cc(OC)cnc45)cc3)c3ccccc23)cs1 [compound 175, 4-(2-(ethyloxy)-1,3-thiazol-4-yl)-N-(4-((7-(methyloxy)-1,5-naphthyridin-4-yl)oxy)phenyl)-1-phthalazinamine] | 0.013 µM | 0.003 µM
COc1cnc2c(Oc3ccc(Nc4nnc(-c5cc6ccccc6o5)c5ccccc45)cc3)ccnc2c1 [compound 176, 4-(1-benzofuran-2-yl)-N-(4-((7-(methyloxy)-1,5-naphthyridin-4-yl)oxy)phenyl)-1-phthalazinamine] | 0.007 µM | 0.002 µM
COc1cnc2c(Oc3ccc(Nc4nnc(-c5ccc(C(N)=O)cc5)c5ccccc45)cc3)ccnc2c1 [compound 177, 4-(4-((4-((7-(methyloxy)-1,5-naphthyridin-4-yl)oxy)phenyl)amino)-1-phthalazinyl)benzamide] | 0.206 µM | 0.004 µM
COc1cnc2c(Oc3ccc(Nc4nnc(-c5ccc(C)nc5F)c5ccccc45)cc3)ccnc2c1 [compound 178, 4-(2-fluoro-6-methyl-3-pyridinyl)-N-(4-((7-(methyloxy)-1,5-naphthyridin-4-yl)oxy)phenyl)-1-phthalazinamine] | 0.035 µM | 0.002 µM
O=C(Nc1cc(Oc2ccc(Nc3nnc(-c4ccccc4)c4ccccc34)cc2F)ccn1)N1CCOCC1 [compound 179, N-(4-((2-fluoro-4-((4-phenyl-1-phthalazinyl)amino)phenyl)oxy)-2-pyridinyl)-4-morpholinecarboxamide] | 0.18 µM | 0.043 µM
COc1cnc2c(Oc3ccc(Nc4nnc(-c5ccc(F)c(OC)c5)c5ccccc45)cc3)ccnc2c1 [compound 180, 4-(4-fluoro-3-(methyloxy)phenyl)-N-(4-((7-(methyloxy)-1,5-naphthyridin-4-yl)oxy)phenyl)-1-phthalazinamine] | 0.027 µM | 0.004 µM
